Results reported in ChEMBL document CHEMBL5291721, “A preclinical secondary pharmacology resource illuminates target-adverse drug reaction associations of marketed drugs” (Nat Commun, 2023).

Legend:
[1] = target: Beta-2 adrenergic receptor (Homo sapiens, UniProt P07550)
[2] = target: Kappa-type opioid receptor (Homo sapiens, UniProt P41145)
[3] = target: 5-hydroxytryptamine receptor 2A (Homo sapiens, UniProt P28223); type: functional, cell-based
Glucocorticoid receptor = target: T1, Glucocorticoid receptor (Homo sapiens, UniProt P04150)
T1 sequence (P04150 whole entry): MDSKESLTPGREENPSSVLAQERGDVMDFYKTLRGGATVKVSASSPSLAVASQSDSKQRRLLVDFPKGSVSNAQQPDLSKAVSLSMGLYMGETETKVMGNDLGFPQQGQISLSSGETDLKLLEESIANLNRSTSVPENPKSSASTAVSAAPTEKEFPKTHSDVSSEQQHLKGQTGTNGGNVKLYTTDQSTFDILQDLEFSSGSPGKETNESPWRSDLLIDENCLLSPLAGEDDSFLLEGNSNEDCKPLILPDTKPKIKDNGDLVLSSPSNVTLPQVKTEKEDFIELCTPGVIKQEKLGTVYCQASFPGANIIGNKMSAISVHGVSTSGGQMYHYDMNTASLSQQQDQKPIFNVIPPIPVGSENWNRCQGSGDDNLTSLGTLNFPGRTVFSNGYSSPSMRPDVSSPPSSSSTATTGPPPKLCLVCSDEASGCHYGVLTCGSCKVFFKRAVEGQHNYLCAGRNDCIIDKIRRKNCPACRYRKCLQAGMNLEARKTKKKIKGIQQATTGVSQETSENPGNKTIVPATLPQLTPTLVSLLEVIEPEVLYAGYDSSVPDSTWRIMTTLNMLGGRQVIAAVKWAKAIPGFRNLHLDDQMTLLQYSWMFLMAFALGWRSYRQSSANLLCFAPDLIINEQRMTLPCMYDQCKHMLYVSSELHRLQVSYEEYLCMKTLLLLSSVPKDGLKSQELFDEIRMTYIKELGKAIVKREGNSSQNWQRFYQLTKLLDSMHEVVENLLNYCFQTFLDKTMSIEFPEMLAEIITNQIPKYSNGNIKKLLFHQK

[4] = target: T2, Alpha-2A adrenergic receptor (Homo sapiens, UniProt P08913); type: functional, cell-based
T2 sequence (P08913 whole entry): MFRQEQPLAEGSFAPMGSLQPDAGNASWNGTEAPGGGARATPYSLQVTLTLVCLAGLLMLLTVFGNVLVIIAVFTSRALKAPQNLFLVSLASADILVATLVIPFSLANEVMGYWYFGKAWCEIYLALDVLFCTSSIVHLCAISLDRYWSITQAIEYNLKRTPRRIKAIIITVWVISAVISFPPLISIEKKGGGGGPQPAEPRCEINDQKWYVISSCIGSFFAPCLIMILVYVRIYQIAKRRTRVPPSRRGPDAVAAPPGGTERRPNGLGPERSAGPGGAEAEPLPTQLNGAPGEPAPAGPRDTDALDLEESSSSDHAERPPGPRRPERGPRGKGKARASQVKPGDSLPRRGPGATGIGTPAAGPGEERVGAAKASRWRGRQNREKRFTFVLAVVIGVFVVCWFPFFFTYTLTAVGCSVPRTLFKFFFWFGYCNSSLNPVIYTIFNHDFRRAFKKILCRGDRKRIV

[5] = target: Neuronal acetylcholine receptor subunit alpha-4 (Homo sapiens, UniProt P43681)
[6] = target: T3, Alpha-2B adrenergic receptor (Homo sapiens, UniProt P18089)
T3 sequence (P18089 whole entry): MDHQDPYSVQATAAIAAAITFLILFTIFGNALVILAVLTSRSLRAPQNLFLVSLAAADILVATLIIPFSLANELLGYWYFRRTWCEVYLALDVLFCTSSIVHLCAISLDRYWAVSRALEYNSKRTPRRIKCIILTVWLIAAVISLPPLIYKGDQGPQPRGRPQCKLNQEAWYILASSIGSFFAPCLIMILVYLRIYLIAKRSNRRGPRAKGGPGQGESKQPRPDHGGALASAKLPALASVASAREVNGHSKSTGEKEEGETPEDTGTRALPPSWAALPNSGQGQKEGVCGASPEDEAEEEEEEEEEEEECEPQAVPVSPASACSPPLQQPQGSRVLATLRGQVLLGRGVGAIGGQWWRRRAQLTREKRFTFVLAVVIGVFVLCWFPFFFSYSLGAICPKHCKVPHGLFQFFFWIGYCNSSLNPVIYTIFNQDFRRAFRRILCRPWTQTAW

[7] = target: Voltage-dependent L-type calcium channel subunit alpha-1C (Rattus norvegicus, UniProt P22002); type: functional
[8] = target: T4, Type-1 angiotensin II receptor (Homo sapiens, UniProt P30556)
T4 sequence (P30556 whole entry): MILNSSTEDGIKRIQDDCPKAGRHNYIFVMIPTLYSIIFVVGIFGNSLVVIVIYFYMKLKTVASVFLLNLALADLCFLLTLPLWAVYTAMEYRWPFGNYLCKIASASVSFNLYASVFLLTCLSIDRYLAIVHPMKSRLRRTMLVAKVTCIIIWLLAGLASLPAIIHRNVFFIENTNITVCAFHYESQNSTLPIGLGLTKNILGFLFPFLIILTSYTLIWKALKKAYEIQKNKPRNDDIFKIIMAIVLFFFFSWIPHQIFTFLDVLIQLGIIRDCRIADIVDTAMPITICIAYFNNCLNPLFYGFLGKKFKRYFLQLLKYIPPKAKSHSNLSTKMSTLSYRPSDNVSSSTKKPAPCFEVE

[9] = target: cGMP-inhibited 3',5'-cyclic phosphodiesterase 3A (Homo sapiens, UniProt Q14432); type: functional
Melanocortin receptor 3 = Melanocortin receptor 3 (Homo sapiens, UniProt P41968)
[10] = target: Muscarinic acetylcholine receptor M3 (Homo sapiens, UniProt P20309)
Endothelin-1 receptor = target: T5, Endothelin-1 receptor (Homo sapiens, UniProt P25101)
T5 sequence (P25101 whole entry): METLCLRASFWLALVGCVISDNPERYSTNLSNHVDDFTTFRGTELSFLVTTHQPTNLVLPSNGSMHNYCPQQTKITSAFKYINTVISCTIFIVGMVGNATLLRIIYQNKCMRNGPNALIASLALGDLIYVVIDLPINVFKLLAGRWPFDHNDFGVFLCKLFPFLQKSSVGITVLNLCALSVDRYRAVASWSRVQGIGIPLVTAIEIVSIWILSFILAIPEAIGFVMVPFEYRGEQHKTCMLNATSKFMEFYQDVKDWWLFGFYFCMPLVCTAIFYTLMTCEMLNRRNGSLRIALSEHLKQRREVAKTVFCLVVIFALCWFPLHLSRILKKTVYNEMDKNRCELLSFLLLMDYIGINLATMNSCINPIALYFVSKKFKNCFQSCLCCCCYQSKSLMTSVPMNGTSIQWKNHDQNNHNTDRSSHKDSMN
Also: assay procedure not described here.

Chain of Beta-2 adrenergic receptor (P07550 whole entry): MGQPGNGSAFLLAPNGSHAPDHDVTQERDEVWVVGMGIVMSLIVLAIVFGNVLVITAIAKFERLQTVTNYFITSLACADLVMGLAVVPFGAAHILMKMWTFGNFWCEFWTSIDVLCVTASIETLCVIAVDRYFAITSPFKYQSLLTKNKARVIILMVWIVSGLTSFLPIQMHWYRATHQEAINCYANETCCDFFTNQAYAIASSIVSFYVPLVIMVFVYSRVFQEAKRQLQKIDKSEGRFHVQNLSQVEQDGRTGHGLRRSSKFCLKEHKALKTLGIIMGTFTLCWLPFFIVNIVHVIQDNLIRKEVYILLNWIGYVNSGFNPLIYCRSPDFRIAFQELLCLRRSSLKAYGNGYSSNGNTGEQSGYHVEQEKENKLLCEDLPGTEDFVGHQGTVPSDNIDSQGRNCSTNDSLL
Chain of Voltage-dependent L-type calcium channel subunit alpha-1C (P22002 whole entry): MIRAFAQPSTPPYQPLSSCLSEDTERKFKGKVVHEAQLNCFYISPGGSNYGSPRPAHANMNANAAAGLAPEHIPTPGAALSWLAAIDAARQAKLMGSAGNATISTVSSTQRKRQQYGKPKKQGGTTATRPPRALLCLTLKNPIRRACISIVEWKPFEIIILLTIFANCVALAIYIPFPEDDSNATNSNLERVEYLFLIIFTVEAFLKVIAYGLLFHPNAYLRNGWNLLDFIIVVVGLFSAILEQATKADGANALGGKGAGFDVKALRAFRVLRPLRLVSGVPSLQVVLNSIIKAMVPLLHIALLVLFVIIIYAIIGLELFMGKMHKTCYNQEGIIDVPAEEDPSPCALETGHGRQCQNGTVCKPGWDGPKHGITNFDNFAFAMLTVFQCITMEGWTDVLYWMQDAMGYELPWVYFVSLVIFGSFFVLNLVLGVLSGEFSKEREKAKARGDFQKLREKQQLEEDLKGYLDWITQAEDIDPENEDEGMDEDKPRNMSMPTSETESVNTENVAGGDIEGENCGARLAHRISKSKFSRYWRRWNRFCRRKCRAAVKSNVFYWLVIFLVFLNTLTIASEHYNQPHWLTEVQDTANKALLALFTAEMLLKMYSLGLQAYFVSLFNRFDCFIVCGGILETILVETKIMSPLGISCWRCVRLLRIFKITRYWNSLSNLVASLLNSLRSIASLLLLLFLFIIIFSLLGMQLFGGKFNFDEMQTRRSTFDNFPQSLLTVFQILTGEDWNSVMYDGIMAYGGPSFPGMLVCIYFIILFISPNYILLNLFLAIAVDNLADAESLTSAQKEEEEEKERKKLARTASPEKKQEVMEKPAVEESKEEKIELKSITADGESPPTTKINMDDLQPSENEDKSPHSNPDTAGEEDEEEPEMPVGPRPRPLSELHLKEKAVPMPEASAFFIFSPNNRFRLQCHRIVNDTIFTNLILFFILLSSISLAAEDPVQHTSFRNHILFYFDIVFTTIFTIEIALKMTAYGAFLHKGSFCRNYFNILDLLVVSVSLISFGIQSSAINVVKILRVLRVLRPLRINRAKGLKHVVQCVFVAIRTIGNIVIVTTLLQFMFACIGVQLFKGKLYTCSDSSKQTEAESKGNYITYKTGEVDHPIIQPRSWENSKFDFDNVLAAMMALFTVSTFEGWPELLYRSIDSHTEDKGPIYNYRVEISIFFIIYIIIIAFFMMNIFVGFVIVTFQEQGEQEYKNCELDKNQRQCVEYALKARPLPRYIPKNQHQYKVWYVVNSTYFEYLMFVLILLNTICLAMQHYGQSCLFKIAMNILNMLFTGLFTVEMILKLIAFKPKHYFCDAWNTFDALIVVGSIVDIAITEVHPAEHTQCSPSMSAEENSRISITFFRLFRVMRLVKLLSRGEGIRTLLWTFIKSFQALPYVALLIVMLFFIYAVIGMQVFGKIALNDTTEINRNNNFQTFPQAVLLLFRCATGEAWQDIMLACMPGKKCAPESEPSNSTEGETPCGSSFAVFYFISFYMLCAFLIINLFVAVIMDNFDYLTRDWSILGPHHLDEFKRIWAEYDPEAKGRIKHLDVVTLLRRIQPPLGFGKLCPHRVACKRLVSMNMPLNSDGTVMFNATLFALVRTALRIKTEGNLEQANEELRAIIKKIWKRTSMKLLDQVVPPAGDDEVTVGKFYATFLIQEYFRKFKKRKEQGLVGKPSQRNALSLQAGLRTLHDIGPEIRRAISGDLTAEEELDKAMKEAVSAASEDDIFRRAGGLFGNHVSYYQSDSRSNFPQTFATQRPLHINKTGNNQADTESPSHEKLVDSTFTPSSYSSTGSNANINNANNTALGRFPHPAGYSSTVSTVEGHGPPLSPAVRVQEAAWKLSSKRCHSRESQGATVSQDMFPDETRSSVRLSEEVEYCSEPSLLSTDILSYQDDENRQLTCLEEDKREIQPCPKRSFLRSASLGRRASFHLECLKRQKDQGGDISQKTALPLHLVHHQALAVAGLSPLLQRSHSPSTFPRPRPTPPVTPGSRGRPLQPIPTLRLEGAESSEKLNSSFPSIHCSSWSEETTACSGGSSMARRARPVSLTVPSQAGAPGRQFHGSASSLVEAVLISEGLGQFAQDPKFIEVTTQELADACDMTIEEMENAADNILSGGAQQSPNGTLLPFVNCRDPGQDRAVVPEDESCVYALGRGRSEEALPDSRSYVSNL
Chain of Neuronal acetylcholine receptor subunit alpha-4 (P43681 whole entry): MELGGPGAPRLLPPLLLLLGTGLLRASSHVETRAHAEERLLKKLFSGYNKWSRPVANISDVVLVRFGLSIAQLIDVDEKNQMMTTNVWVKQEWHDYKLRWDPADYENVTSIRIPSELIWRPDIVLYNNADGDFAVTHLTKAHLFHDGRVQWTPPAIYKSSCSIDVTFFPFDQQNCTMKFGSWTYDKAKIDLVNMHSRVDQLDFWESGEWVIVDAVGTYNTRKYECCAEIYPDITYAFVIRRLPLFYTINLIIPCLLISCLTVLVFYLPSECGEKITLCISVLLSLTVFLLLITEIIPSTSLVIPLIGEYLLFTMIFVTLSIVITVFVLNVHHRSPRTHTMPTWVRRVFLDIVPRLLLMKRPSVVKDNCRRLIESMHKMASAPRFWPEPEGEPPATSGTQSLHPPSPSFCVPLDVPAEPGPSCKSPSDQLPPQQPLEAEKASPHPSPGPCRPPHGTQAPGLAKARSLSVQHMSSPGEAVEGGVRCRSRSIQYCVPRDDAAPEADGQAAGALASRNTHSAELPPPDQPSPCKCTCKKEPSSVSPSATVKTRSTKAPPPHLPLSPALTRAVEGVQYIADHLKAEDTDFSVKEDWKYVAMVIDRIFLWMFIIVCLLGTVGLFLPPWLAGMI
Chain of 5-hydroxytryptamine receptor 2A (P28223 whole entry): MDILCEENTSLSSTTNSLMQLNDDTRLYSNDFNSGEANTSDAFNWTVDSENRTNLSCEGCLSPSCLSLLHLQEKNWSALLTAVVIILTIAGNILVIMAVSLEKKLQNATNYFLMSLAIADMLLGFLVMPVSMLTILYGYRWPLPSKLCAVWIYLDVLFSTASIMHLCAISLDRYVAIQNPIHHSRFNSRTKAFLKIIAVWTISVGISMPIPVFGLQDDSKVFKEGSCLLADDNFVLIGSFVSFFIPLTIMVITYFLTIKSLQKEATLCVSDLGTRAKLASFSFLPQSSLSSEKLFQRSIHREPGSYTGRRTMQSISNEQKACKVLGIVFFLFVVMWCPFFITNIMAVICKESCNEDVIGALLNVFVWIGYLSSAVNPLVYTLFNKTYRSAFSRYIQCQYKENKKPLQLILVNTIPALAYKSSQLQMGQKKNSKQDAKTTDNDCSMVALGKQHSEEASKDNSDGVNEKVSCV
Chain of Melanocortin receptor 3 (P41968 whole entry): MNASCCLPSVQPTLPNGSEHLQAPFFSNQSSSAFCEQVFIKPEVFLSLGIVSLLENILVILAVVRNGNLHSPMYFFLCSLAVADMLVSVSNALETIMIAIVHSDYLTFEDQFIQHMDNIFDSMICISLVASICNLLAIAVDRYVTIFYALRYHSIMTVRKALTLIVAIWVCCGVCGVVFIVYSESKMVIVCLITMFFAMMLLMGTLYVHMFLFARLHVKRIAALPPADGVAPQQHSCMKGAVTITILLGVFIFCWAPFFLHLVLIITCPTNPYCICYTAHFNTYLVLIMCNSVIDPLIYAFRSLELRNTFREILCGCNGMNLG
Chain of Muscarinic acetylcholine receptor M3 (P20309 whole entry): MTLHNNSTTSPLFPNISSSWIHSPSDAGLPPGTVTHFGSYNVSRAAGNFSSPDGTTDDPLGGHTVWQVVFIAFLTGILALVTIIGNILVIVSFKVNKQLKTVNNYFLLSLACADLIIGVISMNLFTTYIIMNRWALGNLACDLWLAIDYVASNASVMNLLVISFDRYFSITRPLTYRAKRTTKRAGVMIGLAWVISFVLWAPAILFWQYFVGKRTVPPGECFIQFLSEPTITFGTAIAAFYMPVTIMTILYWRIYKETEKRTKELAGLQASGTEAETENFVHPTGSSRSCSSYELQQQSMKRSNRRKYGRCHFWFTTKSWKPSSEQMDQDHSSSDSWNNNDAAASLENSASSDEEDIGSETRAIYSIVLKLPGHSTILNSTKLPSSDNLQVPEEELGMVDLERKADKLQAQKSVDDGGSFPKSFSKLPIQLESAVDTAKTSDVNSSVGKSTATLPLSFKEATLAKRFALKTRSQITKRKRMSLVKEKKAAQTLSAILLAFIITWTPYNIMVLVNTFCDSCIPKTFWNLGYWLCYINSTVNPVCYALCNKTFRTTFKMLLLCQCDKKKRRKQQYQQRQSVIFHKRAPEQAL
Chain of Kappa-type opioid receptor (P41145 whole entry): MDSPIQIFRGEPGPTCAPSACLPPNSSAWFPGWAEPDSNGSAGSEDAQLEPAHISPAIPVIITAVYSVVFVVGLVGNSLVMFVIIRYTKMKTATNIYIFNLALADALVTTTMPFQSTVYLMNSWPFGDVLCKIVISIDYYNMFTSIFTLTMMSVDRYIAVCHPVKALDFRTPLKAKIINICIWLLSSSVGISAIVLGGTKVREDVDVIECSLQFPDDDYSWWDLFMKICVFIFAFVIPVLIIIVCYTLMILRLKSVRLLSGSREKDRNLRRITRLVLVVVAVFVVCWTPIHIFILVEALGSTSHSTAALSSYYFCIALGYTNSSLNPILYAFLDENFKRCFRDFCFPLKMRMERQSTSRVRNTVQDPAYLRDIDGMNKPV

Compound | AC50 [1] | AC50 [2] | AC50 [3] | AC50 (Glucocorticoid receptor) | AC50 [4] | AC50 [5] | AC50 [6] | AC50 [7] | AC50 [8] | AC50 [9] | AC50 (Melanocortin receptor 3) | AC50 [10] | AC50 (Endothelin-1 receptor)
CC(C[N+](C)(C)C)OC(N)=O (stereo not given) [BETHANECHOL] | > 10 µM | > 10 µM | > 10 µM | > 10 µM | > 10 µM | > 10 µM | > 10 µM | > 10 µM | > 10 µM | > 30 µM | > 10 µM | > 30 µM | 
C=CCC1(CC(C)C)C(=O)NC(=O)NC1=O [BUTALBITAL] | > 10 µM | > 10 µM | > 10 µM | > 10 µM | > 10 µM | > 10 µM | > 30 µM | > 10 µM | > 30 µM | > 30 µM | > 10 µM | > 30 µM | 
CO/N=C(\C(=O)N[C@@H]1C(=O)N2C(C(=O)O)=C(CSc3nnnn3C)CS[C@H]12)c1csc(N)n1 [CEFMENOXIME] |  |  | > 30 µM | > 30 µM | > 30 µM | > 30 µM |  |  | > 30 µM | > 30 µM | > 30 µM |  | > 30 µM
O=C(O)C1=C(CSc2nnnn2CS(=O)(=O)O)CS[C@@H]2[C@H](NC(=O)[C@H](O)c3ccccc3)C(=O)N12 [CEFONICID] | > 30 µM | > 30 µM | > 30 µM | > 30 µM | > 30 µM | > 30 µM | > 30 µM | > 30 µM | > 30 µM | > 30 µM | > 30 µM | > 30 µM | 
Cc1cc(O)c(C(=O)N[C@@H](C(=O)N[C@@H]2C(=O)N3C(C(=O)O)=C(CSc4nnnn4C)CS[C@H]23)c2ccc(O)cc2)cn1 [CEFPIRAMIDE] | > 30 µM | > 30 µM | > 30 µM | > 30 µM | > 30 µM | > 30 µM | > 30 µM | > 30 µM | > 30 µM | > 30 µM | > 30 µM | > 30 µM | 
Nc1nc(/C(=C/CC(=O)O)C(=O)N[C@@H]2C(=O)N3C(C(=O)O)=CCS[C@H]23)cs1 [CEFTIBUTEN] | > 30 µM | > 30 µM | > 30 µM | > 30 µM | > 30 µM | > 30 µM | > 30 µM | > 30 µM | > 30 µM | > 30 µM | > 30 µM | > 30 µM | 
CC1(C)O[C@@H]2C[C@H]3[C@@H]4CCC5=CC(=O)C=C[C@]5(C)[C@H]4[C@@H](O)C[C@]3(C)[C@]2(C(=O)CO)O1 [DESONIDE] | > 10 µM | > 10 µM | > 10 µM | 0.016 µM | > 10 µM | > 10 µM | > 10 µM | > 10 µM | > 30 µM | > 30 µM | > 10 µM | > 30 µM | 
C[C@]1(O)CC[C@H]2[C@@H]3CCC4=CC(=O)CC[C@]4(C)[C@@]3(F)[C@@H](O)C[C@@]21C [FLUOXYMESTERONE] | > 10 µM | > 10 µM | > 10 µM | 0.088 µM | > 10 µM | > 10 µM | > 30 µM | > 10 µM | > 10 µM | > 30 µM | > 10 µM | > 30 µM | 
CCCC(=O)O[C@]1(C(=O)CO)CC[C@H]2[C@@H]3CCC4=CC(=O)CC[C@]4(C)[C@H]3[C@@H](O)C[C@@]21C [HYDROCORTISONE BUTYRATE] | > 10 µM | > 10 µM | > 10 µM | 0.008 µM | > 10 µM | > 10 µM | > 10 µM | > 10 µM | > 10 µM | > 30 µM | > 10 µM | > 30 µM | 
Cc1cccc(C(C)c2cnc[nH]2)c1C (stereo not given) [MEDETOMIDINE] | > 30 µM | > 30 µM | > 30 µM | > 30 µM |  | > 30 µM | 2.1 µM | > 30 µM | > 30 µM | > 30 µM | > 30 µM | > 30 µM | 
O=C(O)C[C@H](O)C[C@H](O)/C=C/c1c(C2CC2)nc2ccccc2c1-c1ccc(F)cc1 [PITAVASTATIN] | > 10 µM | > 10 µM | > 30 µM | > 10 µM | > 10 µM | > 30 µM |  | > 10 µM | > 30 µM | > 30 µM | > 30 µM | > 30 µM | 
CN1C(=O)C(O)N=C(c2ccccc2)c2cc(Cl)ccc21 (stereo not given) [TEMAZEPAM] | > 10 µM | 9.19 µM | > 30 µM |  | > 10 µM | > 10 µM | > 10 µM | > 10 µM | > 30 µM | 3 µM | > 30 µM | > 10 µM | > 30 µM
CC(CC(c1ccccc1)c1ccccc1)NC(C)(C)C (stereo not given) [TERODILINE] | > 30 µM | 8.4 µM | > 30 µM |  | > 30 µM | > 30 µM | 16 µM | > 30 µM | > 30 µM | > 30 µM | > 30 µM | 1.1 µM | > 30 µM
